Test results as given in ChEMBL document CHEMBL1152894, “Novel CYP17 inhibitors: synthesis, biological evaluation, structure-activity relationships and modelling of methoxy- and hydroxy-substituted methyleneimidazolyl biphenyls” (Eur J Med Chem, 2009).

What was measured:
[1] = molecular target: T1, Steroid 17-alpha-hydroxylase/17,20 lyase (Homo sapiens, UniProt P05093); assay: Inhibition of human CYP17 expressed in Escherichia coli coexpressing NADPH-P450 reductase at 0.2 uM
T1 sequence (P05093 whole entry): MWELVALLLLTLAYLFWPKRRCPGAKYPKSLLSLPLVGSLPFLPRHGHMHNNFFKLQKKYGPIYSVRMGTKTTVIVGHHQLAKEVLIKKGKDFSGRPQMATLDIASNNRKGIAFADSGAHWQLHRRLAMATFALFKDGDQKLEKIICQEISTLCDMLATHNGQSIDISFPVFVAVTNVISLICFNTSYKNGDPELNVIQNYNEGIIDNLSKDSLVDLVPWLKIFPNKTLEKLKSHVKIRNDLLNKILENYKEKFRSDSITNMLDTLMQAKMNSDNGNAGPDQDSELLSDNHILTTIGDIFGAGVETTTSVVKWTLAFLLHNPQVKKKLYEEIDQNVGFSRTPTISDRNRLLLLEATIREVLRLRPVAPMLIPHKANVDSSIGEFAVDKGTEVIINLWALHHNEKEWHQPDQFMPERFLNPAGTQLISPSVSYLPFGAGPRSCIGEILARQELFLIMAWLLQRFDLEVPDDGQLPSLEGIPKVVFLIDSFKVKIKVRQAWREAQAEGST

CYP3A4 [2] = molecular target: T2, CYP3A4 (Homo sapiens, UniProt P08684); assay: (§1) Inhibition of recombinant CYP3A4 expressed in baculovirus-infected insect microsome at 1 uM; format: ADME; conditions: human
CYP11B1 [3] = molecular target: T3, CYP11B1 (Homo sapiens, UniProt P15538); assay: Inhibition of recombinant CYP11B1 expressed in expressed in V79MZh11B1 cells at 2 uM; format: cell-based; conditions: hamster, V79MZh11B1 cells expressing recombinant CYP11B1
T3 sequence (P15538 whole entry): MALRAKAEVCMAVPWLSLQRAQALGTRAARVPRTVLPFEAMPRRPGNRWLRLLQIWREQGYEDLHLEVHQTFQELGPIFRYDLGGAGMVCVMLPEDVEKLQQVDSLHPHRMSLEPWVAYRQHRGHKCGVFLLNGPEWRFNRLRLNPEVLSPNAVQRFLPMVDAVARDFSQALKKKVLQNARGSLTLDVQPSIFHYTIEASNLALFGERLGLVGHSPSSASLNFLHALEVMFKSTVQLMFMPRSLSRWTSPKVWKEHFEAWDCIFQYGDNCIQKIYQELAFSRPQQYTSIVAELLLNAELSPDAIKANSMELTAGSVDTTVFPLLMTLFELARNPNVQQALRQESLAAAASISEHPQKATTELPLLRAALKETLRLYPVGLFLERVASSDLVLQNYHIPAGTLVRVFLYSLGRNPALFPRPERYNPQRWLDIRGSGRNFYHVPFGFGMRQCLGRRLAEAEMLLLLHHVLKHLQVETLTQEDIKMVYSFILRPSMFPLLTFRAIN

CYP11B1 [4] = molecular target: T3, CYP11B1; assay: Inhibition of recombinant CYP11B1 expressed in V79MZh11B1 cells at 0.2 uM; format: cell-based; conditions: hamster, V79MZh11B1 cells expressing recombinant CYP11B1
[5] = molecular target: T1, Steroid 17-alpha-hydroxylase/17,20 lyase; assay: Inhibition of human CYP17 expressed in Escherichia coli coexpressing NADPH-P450 reductase at 2 uM
[6] = molecular target: T1, Steroid 17-alpha-hydroxylase/17,20 lyase; assay: Inhibition of human CYP17 expressed in Escherichia coli coexpressing NADPH-P450 reductase
CYP3A4 [7] = molecular target: T2, CYP3A4; assay: Inhibition of recombinant CYP3A4 expressed in baculovirus-infected insect microsome at 10 uM; format: ADME
Cytochrome P450 3A4 = Cytochrome P450 3A4 (Homo sapiens, UniProt P08684); assay: as §1; format: ADME
[8] = molecular target: T1, Steroid 17-alpha-hydroxylase/17,20 lyase; assay: Ratio of ketoconazole to drug against IC50 for human CYP17 expressed in Escherichia coli coexpressing NADPH-P450 reductase
[9] = molecular target: T4, Cytochrome P450 11B1, mitochondrial (Homo sapiens, UniProt P15538); assay: Inhibition of recombinant CYP11B1 expressed in expressed in V79MZh11B1 cells; format: cell-based
T4 sequence (P15538 whole entry): T3 sequence (P15538 whole entry)

T2 sequence (P08684 whole entry): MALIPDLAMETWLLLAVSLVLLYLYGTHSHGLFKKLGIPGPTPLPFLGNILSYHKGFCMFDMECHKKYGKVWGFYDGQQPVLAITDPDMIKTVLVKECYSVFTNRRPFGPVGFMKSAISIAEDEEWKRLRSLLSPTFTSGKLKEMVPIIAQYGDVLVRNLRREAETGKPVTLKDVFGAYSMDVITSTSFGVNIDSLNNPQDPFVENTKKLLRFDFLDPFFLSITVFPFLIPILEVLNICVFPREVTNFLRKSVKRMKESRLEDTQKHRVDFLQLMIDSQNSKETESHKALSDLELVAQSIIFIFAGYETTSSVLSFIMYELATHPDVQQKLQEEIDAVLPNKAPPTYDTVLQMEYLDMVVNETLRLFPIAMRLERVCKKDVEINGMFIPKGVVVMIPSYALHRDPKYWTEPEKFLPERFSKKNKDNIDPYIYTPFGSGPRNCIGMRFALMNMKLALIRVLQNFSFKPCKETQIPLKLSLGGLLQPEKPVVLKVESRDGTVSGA
Cytochrome P450 3A4, sequence (P08684 whole entry): as above

| SMILES | inhibition at 0.2 µM [1] | inhibition at 1 µM (CYP3A4 [2]) | inhibition at 2 µM (CYP11B1 [3]) | inhibition at 0.2 µM (CYP11B1 [4]) | inhibition at 2 µM [5] | IC50 [6] | inhibition at 10 µM (CYP3A4 [7]) | IC50 (Cytochrome P450 3A4) | Ratio IC50 [8] | IC50 [9] |
| --- | --- | --- | --- | --- | --- | --- | --- | --- | --- | --- |
| CCC(c1ccc(-c2cccc(OC)c2)cc1)n1ccnc1 (racemic) | 31% | 80% | 96% | 84% | 83% | 188 nM | 92% |  |  |  |
| CCOc1ccc(-c2ccc(C(CC)n3ccnc3)cc2)cc1 (racemic) | 3% |  |  |  | 25% |  |  |  |  |  |
| CCC(c1ccc(-c2ccc(O)c(O)c2)cc1)n1ccnc1 (racemic) | 56% | 91% | 92% | 38% | 91% | 152 nM | 99% |  |  |  |
| CCC(c1ccc(-c2ccc(O)c(O)c2)cc1F)n1ccnc1 (racemic) | 69% | 93% | 90% | 51% | 95% | 52 nM | 100% |  |  |  |
| CCC(c1ccc(-c2ccc(OC)c(OC)c2)cc1)n1ccnc1 (racemic) | 9% | 70% |  |  | 58% |  | 93% |  |  |  |
| CCC(c1ccc(-c2cc(O)cc(O)c2)cc1)n1ccnc1 (racemic) | 48% | 90% | 97% | 93% | 90% | 195 nM | 99% |  |  |  |
| CCC(c1ccc(-c2ccc(O)c(Cl)c2)cc1)n1ccnc1 (racemic) | 44% |  | 96% | 89% | 89% | 217 nM | 99% | 91 nM | 50 |  |
| COc1ccc(-c2ccc(C(C)n3ccnc3)cc2)cc1 (racemic) | 9% |  |  |  | 40% |  |  |  |  |  |
| CCC(c1ccc(-c2ccc(OC)cc2)cc1)n1ccnc1 (racemic) | 2% | 73% |  |  | 36% |  | 80% |  |  |  |
| C[C@]12CC[C@H](O)CC1=CC[C@@H]1[C@@H]2CC[C@]2(C)C(c3cccnc3)=CC[C@@H]12 [ABIRATERONE] |  |  |  |  |  |  |  |  |  | 1610 nM |
| CCC(c1ccc(-c2ccc(O)cc2)cc1)n1ccnc1 (racemic) | 27% | 87% | 95% | 89% | 80% | 231 nM | 91% |  |  |  |
| CCC(c1ccc(-c2ccc(O)c(C)c2)cc1)n1ccnc1 (racemic) | 45% | 93% | 96% | 91% | 89% | 261 nM | 98% |  | 50 |  |
| COc1cccc(-c2ccc(C(C)n3ccnc3)cc2)c1 (racemic) | 8% |  |  |  | 59% |  |  |  |  |  |
| CCC(c1ccc(-c2ccc(O)cc2)cc1F)n1ccnc1 (racemic) | 64% | 86% | 97% | 89% | 94% | 90 nM | 91% |  |  |  |
| CCC(c1ccc(-c2cc(C)c(O)c(C)c2)cc1)n1ccnc1 (racemic) | 28% | 94% | 85% | 45% | 78% | 379 nM | 100% |  | 50 |  |
| CC(=O)N1CCN(c2ccc(OCC3COC(Cn4ccnc4)(c4ccc(Cl)cc4Cl)O3)cc2)CC1 (stereo not given) [KETOCONAZOLE] |  |  | 93% | 61% |  |  |  |  |  |  |
| CCC(c1ccc(-c2cccc(O)c2)cc1)n1ccnc1 (racemic) | 55% | 84% | 95% | 90% | 89% | 164 nM | 88% |  |  |  |
